Reference: patent publication US10889812B2, “Short non-coding protein regulatory RNAs (sprRNAs) and methods of use” (University of Maryland, Baltimore, priority 2014, dated 2021)

Legend:
HBE4 cells = test: Cell cycle analysis by flow cytometry, HBE4 cells synchronized at S phase; assay type: cell-based, human; conditions: measured every 2 hrs, vs Scr
Description: (§1) We then wanted to determine whether piR-L-163 (SEQ ID NO:282) plays a functional role in human bronchial epithelial cells. We treated HBE4 cells as well as primary normal human bronchial epithelial (NHBE) cells with piR-L-163 complementary DNA oligonucleotides (Ant-163) (SEQ ID NO:496) or RNA oligonucleotides (Ant-163R) (SEQ ID NO:497) in the experiment. […] Cell cycle distributions were measured every 2 hrs.
Cell cycle distribution was analyzed by Flow Cytometry (Becton-Dickinson). Cells were synchronized in growth factor-free Keratinocyte-SFM with 2 mM Thymidine (Catalog No. T1895, Sigma-Aldrich) for 24 hrs. Transfection is performed using Lipofectamine™ RNAiMAX (Invitrogen) according to its manual, and the final concentration of annealed oligo RNAs is 400 nM. Four hour after transfection, culture medium was replaced by complete Keratinocyte-SFM supplemented with L-Glutamine, prequalified human recombinant EGF 1-53 and BPE. Cells were harvested at different time points, washed in phosphate-buffer saline (PBS), fixed with ice-cold 70% ethanol, and strained in PI/RNase solution (BD Pharmigen). The samples were analyzed on a FACScan flow cytometer in combination with BD lysis software (Becton-Dickinson).

[1] = tested on: HBE4 cells as well as primary normal human bronchial epithelial (NHBE) cells; test: Cell viability and cell growth curve assay (MTT, trypan blue); assay type: cell-based; conditions: compared with cells treated with scrambled DNA oligonucleotides (Scr)
Description: as §1, with “hrs. […]” for “hrs.”
Cell viability and cell growth curve assay were determined by MTT assay and trypan blue exclusion assay, respectively as described previously (Kirino, Y. & Mourelatos, Z. Mouse Piwi-interacting RNAs are 2′-O-methylated at their 3′ termini Nat Struct Mol Biol. 14, 347-348 (2007)). BrieflySpecifically, MTT (5 mg/ml) was added into cells and incubated at culture condition for 3 hours, removed the medium carefully and dissolved formazan in DMSO, assay was used to assess the surviving cells and OD values were measured using Microplate Reader Manager (Bio Rad) at wavelengths of 570/690 nm. […] Unstained viable cells were counted in hemocytometer chamber under microscope. […]

[2] = molecular target: T1, wild-type human moesin (Moesin-WT) (Homo sapiens, UniProt P26038); test: IP/RT-PCR binding to introduced moesin in H522 cells; conditions: H522 cells co-transfected
T1 construct: expressed in transfected cells; host or cells: H522 cells, pcDNA3.1(+) plasmid
Source text: (§2) To determine potential element of ERM proteins critical for their binding with piR-L-163, we analyzed human and Drosophila moesin sequences using BindN (http://bioinfo.ggc.org/bindn/) and identified RRRKPDT (SEQ ID NO:488) at position 293-299 as a candidate RNA binding element (FIG. 12a, b). We then constructed plasmids containing either wild-type human moesin (Moesin-WT) or a mutant form of moesin with RRRKPDT (SEQ ID NO:488) deletion (Moesin-DM). Both plasmids produce high levels of moesin proteins in the transfected cells (FIG. 5d). We used two cell lines (H522 and HBE4) to test if this element contributes to the binding between moesin and piR-L-163. H522 cells expressed extremely low level of endogenous p-ERM (FIG. 5c) and very low level of piR-L-163 (FIG. 11a). H522 cells transfected with piR-L-163 were simultaneously transfected with either Moesin-WT or Moesin-DM to determine the potential binding ability of the introduced moesin proteins with piR-L-163. We also used the non-functional piR-L-163M1 mutant to replace piR-L-163 in the experiment as a negative control. […] We next transfected HBE4 cells which expressed both p-ERM and piR-L-163 (FIG. 4e and FIG. 11a) with either Moesin-WT or Moesin-DM after knocked down the endogenous moesin in the cells. […]

[3] = molecular target: T2, mutant form of moesin with RRRKPDT deletion (Moesin-DM) (Homo sapiens, UniProt P26038, DEL293-299); test: as above; conditions: H522 cells co-transfected
T2 construct: expressed in transfected cells; host or cells: H522 cells, pcDNA3.1(+) plasmid
Source text: as §2

T2 sequence (P26038 with tags, fused parts or gaps DEL293-299): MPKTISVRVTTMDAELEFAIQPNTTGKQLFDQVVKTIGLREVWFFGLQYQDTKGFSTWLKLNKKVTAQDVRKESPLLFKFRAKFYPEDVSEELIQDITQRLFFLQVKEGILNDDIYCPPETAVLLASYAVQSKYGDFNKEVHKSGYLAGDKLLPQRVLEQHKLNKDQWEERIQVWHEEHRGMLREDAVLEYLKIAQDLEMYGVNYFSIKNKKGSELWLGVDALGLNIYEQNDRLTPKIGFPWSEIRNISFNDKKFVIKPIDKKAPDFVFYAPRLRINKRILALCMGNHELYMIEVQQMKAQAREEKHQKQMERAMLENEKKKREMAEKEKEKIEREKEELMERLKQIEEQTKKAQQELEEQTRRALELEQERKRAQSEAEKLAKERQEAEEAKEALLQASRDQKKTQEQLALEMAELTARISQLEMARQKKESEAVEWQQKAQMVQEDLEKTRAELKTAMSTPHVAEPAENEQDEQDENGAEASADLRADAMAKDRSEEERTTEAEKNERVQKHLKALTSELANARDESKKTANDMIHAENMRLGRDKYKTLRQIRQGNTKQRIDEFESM
T1 sequence (P26038 whole entry): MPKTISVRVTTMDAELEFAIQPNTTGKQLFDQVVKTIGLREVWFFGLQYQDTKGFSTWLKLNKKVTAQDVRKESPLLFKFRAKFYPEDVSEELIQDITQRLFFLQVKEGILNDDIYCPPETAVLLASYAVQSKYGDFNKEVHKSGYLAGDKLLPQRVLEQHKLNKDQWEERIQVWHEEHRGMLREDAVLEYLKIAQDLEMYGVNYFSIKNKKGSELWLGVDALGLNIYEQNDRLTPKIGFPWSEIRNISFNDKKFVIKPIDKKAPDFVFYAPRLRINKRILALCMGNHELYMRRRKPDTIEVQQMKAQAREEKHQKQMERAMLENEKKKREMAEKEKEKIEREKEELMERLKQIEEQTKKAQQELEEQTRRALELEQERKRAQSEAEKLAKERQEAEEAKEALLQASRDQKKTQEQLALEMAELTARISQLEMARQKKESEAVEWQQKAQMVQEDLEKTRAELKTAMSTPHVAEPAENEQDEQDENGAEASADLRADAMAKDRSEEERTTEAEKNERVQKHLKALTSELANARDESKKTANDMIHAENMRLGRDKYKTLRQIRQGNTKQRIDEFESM

Substance | cell cycle distribution (HBE4 cells) | cell viability and proliferation [1] | binding to Moesin-WT [2] | binding to Moesin-DM [3]
Ant-163: DNA sequence antisense to piR-L-163, SEQ ID NO:496, 5′-GGTCAGAGAATCAAAGTAACATCATGATAT-3′ (DNA, backbone and methylation of C not given here) | accelerated DNA synthesis and G2-M accumulation | enhanced cell viability and proliferation |  | 
piR-L-163: sprRNA, SEQ ID NO:282; piRNA-L aligned to intron 10 of LAMC2; AUAUCAUGAUGUUACUUUGAUUCUCUGACC with 3′ 2′-O-methylation (listed as RNA, chemistry not fully specified; listed as Homo sapiens) |  |  | bound to piR-L-163 | failed to bind
